Data as given in paper PMC11748363, “Antimicrobial and Antiproliferative Properties of 2‐Phenyl‐N‐(Pyridin‐2‐yl)acetamides” (Chemical Biology & Drug Design, 2025).
Converted amounts (≈) assume the structure as drawn. Read-outs that look alike come from different tables or passages of the source.

Key:
[1] = test system: Candida albicans CCM 8320, ATCC 24433; experiment: Antifungal microdilution broth MIC, CA
[2] = test system: Aspergillus fumigatus ATCC 204305; experiment: Antifungal microdilution broth MIC, AF
[3] = test system: Candida tropicalis CCM 8264, ATCC 750; experiment: Antifungal microdilution broth MIC, CT
[4] = test system: Mycolicibacterium smegmatis DSM 43465; experiment: Antimycobacterial microdilution broth MIC (resazurin), M. smegmatis; type: cell-based; settings: DSM43465, read-out: MIC M. smegmatis
[5] = test system: Lichtheimia corymbifera CCM 8077; experiment: Antifungal microdilution broth MIC, LC
[6] = test system: Candida parapsilosis CCM 8260, ATCC 22019; experiment: Antifungal microdilution broth MIC, CP; settings: Lodderomyces parapsilosis
[7] = test system: HepG2 cell line; experiment: Cytotoxicity CellTiter 96, HepG2; type: cell-based, human; settings: Homo sapiens, HepG2, 24 h, 24 h incubation; ^c compound precipitated in the testing medium; ^d over the limit of tested concentrations
[8] = test system: Trichophyton interdigitale CCM 8377, ATCC 9533; experiment: Antifungal microdilution broth MIC, TI; settings: Trichophyton interdigitale
[9] = test system: Mycobacterium tuberculosis H37Ra; experiment: Antimycobacterial microdilution broth MIC (resazurin), Mtb H37Ra; type: cell-based; settings: for MIC: Mycobacterium tuberculosis, H37RA, read-out: MIC Mtb H37Ra; for SI (selectivity index): SI = HepG2 IC50 (μM)/MIC MtbH37Ra (μM), calculated for compounds with MIC ≤ 31.25 μg/mL
[10] = test system: Staphylococcus aureus CCM 4223, ATCC 29213; experiment: Antibacterial microdilution broth MIC, SA; type: cell-based; settings: Staphylococcus aureus
[11] = test system: Mycolicibacterium aurum DSM 43999; experiment: Antimycobacterial microdilution broth MIC (resazurin), M. aurum; type: cell-based; settings: DSM43999, read-out: MIC M. aurum
[12] = test system: Staphylococcus epidermidis CCM 4418, ATCC 12228; experiment: Antibacterial microdilution broth MIC, SE; type: cell-based
[13] = test system: Acinetobacter baumannii DSM 30007, ATCC 19606; experiment: Antibacterial microdilution broth MIC, ACI; type: cell-based
[14] = test system: Escherichia coli CCM 3954, ATCC 25922; experiment: Antibacterial microdilution broth MIC, EC; type: cell-based
[15] = test system: Candida krusei CCM 8271, ATCC 6258; experiment: Antifungal microdilution broth MIC, CK; settings: Pichia kudriavzevii
[16] = test system: Pseudomonas aeruginosa CCM 3955, ATCC 27853; experiment: Antibacterial microdilution broth MIC, PA; type: cell-based
[17] = test system: Aspergillus flavus CCM 8363; experiment: Antifungal microdilution broth MIC, AFla
[18] = test system: Staphylococcus aureus subsp. aureus CCM 4750, ATCC 43300 (MRSA); experiment: Antibacterial microdilution broth MIC, MRSA; type: cell-based; settings: Staphylococcus aureus
[19] = test system: Klebsiella pneumoniae CCM 4415, ATCC 10031; experiment: Antibacterial microdilution broth MIC, KP
[20] = test system: Enterococcus faecalis CCM 4224, ATCC 29212; experiment: Antibacterial microdilution broth MIC, EF; type: cell-based
[21] = ATCC204305, 24 h, read-out: MIC AF 24h
[22] = ATCC204305, 48 h, read-out: MIC AF 48h
[23] = CCM8077, 24 h, read-out: MIC LC 24h
[24] = CCM8077, 48 h, read-out: MIC LC 48h
[25] = CCM8363, 24 h, read-out: MIC AFla 24h
[26] = CCM8363, 48 h, read-out: MIC AFla 48h

SMILES	MIC ([1]; 24 h, read-out: MIC CA 24h) [µM]	MIC ([1]; 48 h, read-out: MIC CA 48h) [µM]	MIC [2, 21] [µM]	MIC [2, 22] [µM]	MIC ([3]; 24 h, read-out: MIC CT 24h) [µM]	MIC ([3]; 48 h, read-out: MIC CT 48h) [µM]	MIC [4] [µg/mL]	MIC [5, 23] [µM]	MIC [5, 24] [µM]	MIC ([6]; 24 h, read-out: MIC CP 24h) [µM]	MIC ([6]; 48 h, read-out: MIC CP 48h) [µM]	IC50 [7] [µM]	MIC ([8]; 72 h, read-out: MIC TI 72h) [µM]	MIC ([8]; 120 h, read-out: MIC TI 120h) [µM]	MIC ([9]; Calculated from MIC (μg/mL)) [µM]	MIC [9] [µg/mL]	MIC ([10]; 24 h, read-out: MIC SA 24h) [µM]	MIC ([10]; 48 h, read-out: MIC SA 48h) [µM]	MIC [11] [µg/mL]	MIC ([12]; 24 h, read-out: MIC SE 24h) [µM]	other results
O=C(Cc1ccccc1Cl)Nc1cccc(Cl)n1 [Compound 15, 2-(2-chlorophenyl)-N-(6-chloropyridin-2-yl)acetamide]	> 500	> 500	> 500	> 500	> 500	> 500	> 500	> 500	> 500	> 500	> 500	> 100	500 (≈ 141 µg/mL)	500 (≈ 141 µg/mL)	111	31.2	> 500	> 500	250 (≈ 889 µM)	> 500	SI (selectivity index) [9]: > 0.9; MIC ([12]; 48 h, read-out: MIC SE 48h): > 500 µM; MIC ([13]; 24 h, read-out: MIC ACI 24h): > 500 µM; MIC ([13]; 48 h, read-out: MIC ACI 48h): > 500 µM; MIC ([14]; 24 h, read-out: MIC EC 24h): > 500 µM; MIC ([14]; 48 h, read-out: MIC EC 48h): > 500 µM; MIC ([15]; 24 h, read-out: MIC CK 24h): 500 µM (≈ 141 µg/mL); MIC ([15]; 48 h, read-out: MIC CK 48h): 500 µM (≈ 141 µg/mL); MIC ([16]; 24 h, read-out: MIC PA 24h): > 500 µM; MIC ([16]; 48 h, read-out: MIC PA 48h): > 500 µM; MIC [17, 25]: > 500 µM; MIC [17, 26]: > 500 µM; MIC ([18]; 24 h, read-out: MIC MRSA 24h): > 500 µM; MIC ([18]; 48 h, read-out: MIC MRSA 48h): > 500 µM; MIC KP 24h [19]: > 500 µM; MIC KP 48h [19]: > 500 µM; MIC ([20]; 24 h, read-out: MIC EF 24h): > 500 µM; MIC ([20]; 48 h, read-out: MIC EF 48h): > 500 µM
COc1ccccc1CC(=O)Nc1ccccn1 [Compound 4]	> 500	> 500	> 500	> 500	> 500	> 500	> 500	> 500	> 500	> 500	> 500	> 1000	> 500	> 500	516	125	> 500	> 500	250 (≈ 1030 µM)	> 500	MIC ([12]; 48 h, read-out: MIC SE 48h): > 500 µM; MIC ([13]; 24 h, read-out: MIC ACI 24h): > 500 µM; MIC ([13]; 48 h, read-out: MIC ACI 48h): > 500 µM; MIC ([14]; 24 h, read-out: MIC EC 24h): > 500 µM; MIC ([14]; 48 h, read-out: MIC EC 48h): > 500 µM; MIC ([15]; 24 h, read-out: MIC CK 24h): > 500 µM; MIC ([15]; 48 h, read-out: MIC CK 48h): > 500 µM; MIC ([16]; 24 h, read-out: MIC PA 24h): > 500 µM; MIC ([16]; 48 h, read-out: MIC PA 48h): > 500 µM; MIC [17, 25]: > 500 µM; MIC [17, 26]: > 500 µM; MIC ([18]; 24 h, read-out: MIC MRSA 24h): > 500 µM; MIC ([18]; 48 h, read-out: MIC MRSA 48h): > 500 µM; MIC KP 24h [19]: > 500 µM; MIC KP 48h [19]: > 500 µM; MIC ([20]; 24 h, read-out: MIC EF 24h): > 500 µM; MIC ([20]; 48 h, read-out: MIC EF 48h): > 500 µM
COc1ccc(CC(=O)Nc2ccc(Cl)cn2)cc1 [Compound 11, 2-(4-methoxyphenyl)-N-(5-chloropyridin-2-yl)acetamide]	> 500	> 500	> 500	> 500	> 500	> 500	> 500	> 500	> 500	> 500	> 500	399	> 500	> 500	> 1800	> 500	250 (≈ 69.2 µg/mL)	500 (≈ 138 µg/mL)	> 500	> 500	MIC ([12]; 48 h, read-out: MIC SE 48h): > 500 µM; MIC ([13]; 24 h, read-out: MIC ACI 24h): > 500 µM; MIC ([13]; 48 h, read-out: MIC ACI 48h): > 500 µM; MIC ([14]; 24 h, read-out: MIC EC 24h): > 500 µM; MIC ([14]; 48 h, read-out: MIC EC 48h): > 500 µM; MIC ([15]; 24 h, read-out: MIC CK 24h): > 500 µM; MIC ([15]; 48 h, read-out: MIC CK 48h): > 500 µM; MIC ([16]; 24 h, read-out: MIC PA 24h): > 500 µM; MIC ([16]; 48 h, read-out: MIC PA 48h): > 500 µM; MIC [17, 25]: > 500 µM; MIC [17, 26]: > 500 µM; MIC ([18]; 24 h, read-out: MIC MRSA 24h): > 500 µM; MIC ([18]; 48 h, read-out: MIC MRSA 48h): > 500 µM; MIC KP 24h [19]: > 500 µM; MIC KP 48h [19]: > 500 µM; MIC ([20]; 24 h, read-out: MIC EF 24h): > 500 µM; MIC ([20]; 48 h, read-out: MIC EF 48h): > 500 µM
O=C(Cc1cccc(Cl)c1)Nc1cccc(Cl)n1 [Compound 18]	> 500	> 500	> 500	> 500	> 500	> 500	> 500	> 500	> 500	> 500	> 500	> 100	500 (≈ 141 µg/mL)	500 (≈ 141 µg/mL)	55.6	15.6	> 500	> 500	62.5 (≈ 222 µM)	> 500	SI (selectivity index) [9]: > 1.8; MIC ([12]; 48 h, read-out: MIC SE 48h): > 500 µM; MIC ([13]; 24 h, read-out: MIC ACI 24h): > 500 µM; MIC ([13]; 48 h, read-out: MIC ACI 48h): > 500 µM; MIC ([14]; 24 h, read-out: MIC EC 24h): > 500 µM; MIC ([14]; 48 h, read-out: MIC EC 48h): > 500 µM; MIC ([15]; 24 h, read-out: MIC CK 24h): > 500 µM; MIC ([15]; 48 h, read-out: MIC CK 48h): > 500 µM; MIC ([16]; 24 h, read-out: MIC PA 24h): > 500 µM; MIC ([16]; 48 h, read-out: MIC PA 48h): > 500 µM; MIC [17, 25]: > 500 µM; MIC [17, 26]: > 500 µM; MIC ([18]; 24 h, read-out: MIC MRSA 24h): > 500 µM; MIC ([18]; 48 h, read-out: MIC MRSA 48h): > 500 µM; MIC KP 24h [19]: > 500 µM; MIC KP 48h [19]: > 500 µM; MIC ([20]; 24 h, read-out: MIC EF 24h): > 500 µM; MIC ([20]; 48 h, read-out: MIC EF 48h): > 500 µM
